Read-outs that look alike come from different tables or passages of the source. Bridge positions count the residues as written; N and C are the ends. Square brackets hold non-standard residues; d marks the D form. Peptide text beside a SMILES is read from it. * marks the point of attachment. Pen = CC(C)(S)[C@H](N)C(=O)O; dOrn = NCCC[C@@H](N)C(=O)O; Nonanoyl = CCCCCCCCC(=O)*; X2 = O=C(c1ccc(Cl)cc1Cl)*; Orn = NCCC[C@H](N)C(=O)O; Dap = NC[C@H](N)C(=O)O
How the values were obtained:
A. baumannii = format: cell-based
Method: (§1) MICs for laterocidine and its various analogues were determined by broth microdilution[49] for the following polymyxin-susceptible ATCC and clinical isolates: P. aeruginosa FADDI-PA022, FADDI-PA001, FADDI-PA025, FADDI-PA070, FADDI-PA060; A. baumannii FADDI-AB134, FADDI-AB034, FADDI-AB030, FADDI-AB174, FADDI-AB241; K. pneumoniae FADDI-KP032, FADDI-KP022, BM1, FADDI-KP065, FADDI-KP064, FADDI-KP003; and E. cloacae FADDI-EC001, FADDI-EC003, and FADDI-EC006. Experiments were performed with cation-adjusted Mueller–Hinton broth (CAMHB) in 96-well polystyrene microtiter plates. Wells were inoculated with 100 μL of bacterial suspension prepared in CAMHB (containing ∼10^6 CFU/mL) and 100 μL of CAMHB containing increasing concentrations of polymyxins (0–32 μg/mL). MIC measurements were performed in duplicate, with the MIC being the lowest concentration at which visible growth was inhibited following 18–20 h of incubation at 37 °C. Bacterial killing kinetics was investigated over 24 h as described previously.[50]

[1] = test system: Gram-negative strains of P. aeruginosa, A. baumannii, K. pneumoniae, and E. cloacae; format: cell-based
Method: as §1

[2] = compared with native laterocidine

MICs against P. aeruginosa and A. baumannii (range) [1] [µg/mL] | fold increase in MIC (loss of activity) against all strains / all species [1, 2] | SMILES | further results
2 to 16 | no more than 1 fold | CCCCCCCCC(=O)N[C@H](CO)C(=O)N[C@H](Cc1ccc(O)cc1)C(=O)N[C@H](Cc1c[nH]c2ccccc12)C(=O)N[C@H](CCCN)C(=O)N[C@@H](CCCN)C(=O)NCC(=O)N[C@H](CCCN)C(=O)N[C@@H](Cc1c[nH]c2ccccc12)C(=O)N[C@@H]1C(=O)N[C@@H]([C@@H](C)CC)C(=O)N[C@@H](C)C(=O)NCC(=O)NCC(=O)O[C@@H]1C [Peptide 26] (Nonanoyl-[dS][dY][dW][dOrn][Orn]G[dOrn]WTIAGG; ester 9-C) | 
 | 2–4 fold | CCCCCCCCC(=O)N[C@H](CO)C(=O)N[C@H](Cc1ccc(O)cc1)C(=O)N[C@H](Cc1c[nH]c2ccccc12)C(=O)N[C@H](CCCN)C(=O)N[C@@H](CCCN)C(=O)NCC(=O)N[C@H](C)C(=O)N[C@@H](Cc1c[nH]c2ccccc12)C(=O)N[C@@H]1C(=O)N[C@@H]([C@@H](C)CC)C(=O)N[C@@H](CC(N)=O)C(=O)NCC(=O)NCC(=O)O[C@@H]1C [Peptide 29] (Nonanoyl-[dS][dY][dW][dOrn][Orn]G[dA]WTINGG; ester 9-C) | 
 | 2–8 fold | CCCCCCCCC(=O)N[C@H](CO)C(=O)N[C@H](Cc1ccc(O)cc1)C(=O)N[C@H](Cc1c[nH]c2ccccc12)C(=O)N[C@H](CCCN)C(=O)N[C@@H](C)C(=O)NCC(=O)N[C@H](CCCN)C(=O)N[C@@H](Cc1c[nH]c2ccccc12)C(=O)N[C@@H]1C(=O)N[C@@H]([C@@H](C)CC)C(=O)N[C@@H](CC(N)=O)C(=O)NCC(=O)NCC(=O)O[C@@H]1C [Peptide 31] (Nonanoyl-[dS][dY][dW][dOrn]AG[dOrn]WTINGG; ester 9-C) | 
 | 2–8 fold | CCCCCCCCC(=O)N[C@H](CO)C(=O)N[C@H](Cc1ccc(O)cc1)C(=O)N[C@H](Cc1c[nH]c2ccccc12)C(=O)N[C@H](C)C(=O)N[C@@H](CCCN)C(=O)NCC(=O)N[C@H](CCCN)C(=O)N[C@@H](Cc1c[nH]c2ccccc12)C(=O)N[C@@H]1C(=O)N[C@@H]([C@@H](C)CC)C(=O)N[C@@H](CC(N)=O)C(=O)NCC(=O)NCC(=O)O[C@@H]1C [Peptide 32] (Nonanoyl-[dS][dY][dW][dA][Orn]G[dOrn]WTINGG; ester 9-C) | 

Further lines, the compound ahead of its results:

SMILES | MICs against P. aeruginosa and A. baumannii (range) [1] [µg/mL] | fold increase in MIC (loss of activity) against all strains / all species [1, 2] | further results
CC[C@H](C)[C@@H]1NC(=O)[C@@H](NC(=O)[C@H](Cc2c[nH]c3ccccc23)NC(=O)[C@@H](CCCN)NC(=O)CNC(=O)[C@H](CCCN)NC(=O)[C@@H](CCCN)NC(=O)[C@@H](Cc2c[nH]c3ccccc23)NC(=O)[C@@H](Cc2ccc(O)cc2)NC(=O)[C@@H](CO)NC(=O)c2ccc(Cl)cc2Cl)[C@@H](C)OC(=O)CNC(=O)CNC(=O)[C@H](CC(N)=O)NC1=O [Peptide 12] (X2-[dS][dY][dW][dOrn][Orn]G[dOrn]WTINGG; ester 9-C) |  |  | fold increase in MIC (loss of activity) against A. baumannii (A. baumannii; [2]): 4–8 fold
CC[C@H](C)[C@@H]1NC(=O)[C@@H](N)[C@@H](C)OC(=O)CNC(=O)CNC(=O)[C@H](CC(N)=O)NC1=O [Peptide 13] (HELM PEPTIDE1{[C[C@@H](O[*:3])[C@H](N)C(=O)[*:2]].I.N.G.G}$PEPTIDE1,PEPTIDE1,1:R3-5:R2$$$V2.0) |  |  | MICs against all tested strains (range) [1]: > 32 µg/mL
CC[C@H](C)[C@@H]1NC(=O)[C@@H](NC(=O)[C@H](Cc2c[nH]c3ccccc23)NC(=O)[C@@H](CCCN)NC(=O)CNC(=O)[C@H](CCCN)NC(=O)[C@@H](CCCN)NC(=O)[C@@H](Cc2c[nH]c3ccccc23)NC(=O)[C@@H](Cc2ccc(O)cc2)NC(=O)[C@H](N)CO)[C@@H](C)OC(=O)CNC(=O)CNC(=O)[C@H](CC(N)=O)NC1=O [Peptide 14] (H-[dS][dY][dW][dOrn][Orn]G[dOrn]WTINGG; ester 9-C) |  |  | MICs against all tested strains (range) [1]: > 32 µg/mL
CCCCCCCCC(=O)N[C@H](CO)C(=O)N[C@H](Cc1ccc(O)cc1)C(=O)N[C@H](Cc1c[nH]c2ccccc12)C(=O)N[C@H](CCCN)C(=O)N[C@@H](CCCN)C(=O)NCC(=O)N[C@H](CCCN)C(=O)N[C@@H](Cc1c[nH]c2ccccc12)C(=O)N[C@H]1CNC(=O)CNC(=O)CNC(=O)[C@H](CC(N)=O)NC(=O)[C@H]([C@@H](C)CC)NC1=O [Peptide 16] (Nonanoyl-[dS][dY][dW][dOrn][Orn]G[dOrn]W[Dap]INGG; lactam 9-C) | > 32 |  | 
CCCCCCCCC(=O)N[C@H](CO)C(=O)N[C@H](Cc1ccc(O)cc1)C(=O)N[C@H](Cc1c[nH]c2ccccc12)C(=O)N[C@H](CCCN)C(=O)N[C@@H](CCCN)C(=O)NCC(=O)N[C@H](CCCN)C(=O)N[C@@H](Cc1c[nH]c2ccccc12)C(=O)N[C@@H]1C(=O)N[C@@H]([C@@H](C)CC)C(=O)N[C@@H](CC(N)=O)C(=O)NCC(=O)NCC(=O)N[C@@H]1C [Peptide 17] | > 32 |  | 
CCCCCCCCC(=O)N[C@H](CO)C(=O)N[C@H](Cc1ccc(O)cc1)C(=O)N[C@H](Cc1c[nH]c2ccccc12)C(=O)N[C@H](CCCN)C(=O)N[C@@H](CCCN)C(=O)NCC(=O)N[C@H](CCCN)C(=O)N[C@@H](Cc1c[nH]c2ccccc12)C(=O)N[C@@H]1C(=O)N[C@@H]([C@@H](C)CC)C(=O)N[C@@H](CC(N)=O)C(=O)NCC(=O)N[C@H](C(=O)O)CSSC1(C)C [Peptide 18] (Nonanoyl-[dS][dY][dW][dOrn][Orn]G[dOrn]W[Pen]INGC-OH; disulfide 9-13; C-terminus assumed) |  | 2–8 fold | 
CCCCCCCCC(=O)N[C@H](CO)C(=O)N[C@H](Cc1ccc(O)cc1)C(=O)N[C@H](Cc1c[nH]c2ccccc12)C(=O)N[C@H](CCCN)C(=O)N[C@@H](CCCN)C(=O)NCC(=O)N[C@H](CCCN)C(=O)N[C@@H](Cc1c[nH]c2ccccc12)C(=O)N[C@H](C(=O)N[C@H](C(=O)N[C@@H](CC(N)=O)C(=O)NCC(=O)NCC(=O)O)[C@@H](C)CC)[C@@H](C)O [Peptide 19] (Nonanoyl-[dS][dY][dW][dOrn][Orn]G[dOrn]WTINGG-OH) | 8 to 32 |  | MICs against K. pneumoniae and E. cloacae (range) [1]: 4 to 32 µg/mL; fold increase in MIC for K. pneumoniae and E. cloacae [1, 2]: 2–4 fold; fold increase in MIC for P. aeruginosa and A. baumannii [1, 2]: 2–8 fold
CCCCCCCCC(=O)N[C@H](CO)C(=O)N[C@H](Cc1ccc(O)cc1)C(=O)N[C@H](Cc1c[nH]c2ccccc12)C(=O)N[C@H](CCCN)C(=O)N[C@@H](CCCN)C(=O)NCC(=O)N[C@H](CCCN)C(=O)N[C@@H](Cc1c[nH]c2ccccc12)C(=O)N[C@H](C(=O)N[C@H](C(=O)N[C@@H](CC(N)=O)C(=O)NCC(=O)NCC(N)=O)[C@@H](C)CC)[C@@H](C)O [Peptide 20] (Nonanoyl-[dS][dY][dW][dOrn][Orn]G[dOrn]WTINGG-NH2) |  |  | MICs against P. aeruginosa, K. pneumoniae, and E. cloacae (range) [1]: 4 to 32 µg/mL; fold increase in MIC against P. aeruginosa, K. pneumoniae, and E. cloacae [1, 2]: 2–4 fold
CCCCCCCCC(=O)N[C@H](CO)C(=O)N[C@H](Cc1ccc(O)cc1)C(=O)N[C@H](Cc1c[nH]c2ccccc12)C(=O)N[C@H](CCCN)C(=O)N[C@@H](CCCN)C(=O)NCC(=O)N[C@H](CCCN)C(=O)N[C@@H](Cc1c[nH]c2ccccc12)C(=O)N[C@H](C(=O)N[C@H](C(=O)N[C@@H](CC(N)=O)C(=O)NCC(N)=O)[C@@H](C)CC)[C@@H](C)O [Peptide 21] (Nonanoyl-[dS][dY][dW][dOrn][Orn]G[dOrn]WTING-NH2) |  |  | fold increase in MIC against P. aeruginosa, K. pneumoniae, and E. cloacae [1, 2]: 1–2 fold
CCCCCCCCC(=O)N[C@H](CO)C(=O)N[C@H](Cc1ccc(O)cc1)C(=O)N[C@H](Cc1c[nH]c2ccccc12)C(=O)N[C@H](CCCN)C(=O)N[C@@H](CCCN)C(=O)NCC(=O)N[C@H](CCCN)C(=O)N[C@@H](Cc1c[nH]c2ccccc12)C(=O)N[C@@H]1C(=O)N[C@@H]([C@@H](C)CC)C(=O)N[C@@H](CC(N)=O)C(=O)N[C@@H](C)C(=O)NCC(=O)O[C@@H]1C [Peptide 25] (Nonanoyl-[dS][dY][dW][dOrn][Orn]G[dOrn]WTINAG; ester 9-C) | 2 to 16 | no more than 1 fold | 
CCCCCCCCC(=O)N[C@H](CO)C(=O)N[C@H](Cc1ccc(O)cc1)C(=O)N[C@H](C)C(=O)N[C@H](CCCN)C(=O)N[C@@H](CCCN)C(=O)NCC(=O)N[C@H](CCCN)C(=O)N[C@@H](Cc1c[nH]c2ccccc12)C(=O)N[C@@H]1C(=O)N[C@@H]([C@@H](C)CC)C(=O)N[C@@H](CC(N)=O)C(=O)NCC(=O)NCC(=O)O[C@@H]1C [Peptide 33] (Nonanoyl-[dS][dY][dA][dOrn][Orn]G[dOrn]WTINGG; ester 9-C) |  |  | MICs against A. baumannii (range over strains) (A. baumannii; summary of Tables 1 and 2): > 32 µg/mL
CCCCCCCCC(=O)N[C@H](CO)C(=O)N[C@H](C)C(=O)N[C@H](Cc1c[nH]c2ccccc12)C(=O)N[C@H](CCCN)C(=O)N[C@@H](CCCN)C(=O)NCC(=O)N[C@H](CCCN)C(=O)N[C@@H](Cc1c[nH]c2ccccc12)C(=O)N[C@@H]1C(=O)N[C@@H]([C@@H](C)CC)C(=O)N[C@@H](CC(N)=O)C(=O)NCC(=O)NCC(=O)O[C@@H]1C [Peptide 34] (Nonanoyl-[dS][dA][dW][dOrn][Orn]G[dOrn]WTINGG; ester 9-C) |  |  | MICs against A. baumannii (range over strains) (A. baumannii): ≥ 32 µg/mL
